Here are results for three compounds from US20040197341A1, “Therapeutic process for p. aeruginosa infections using macrolide antibiotics” (priority 2004, published 2004).

Series [1] relates to P. aeruginosa strain PAO1. Kind of series: Cell growth of P. aeruginosa PAO1 in LB medium (turbidity at 660 nm) and SDS-PAGE of total protein extracts. Format: cell-based. Here is the method:
P. aeruginosa strain PAO1 was grown for a total of 10 hours on Luria-Bertani (LB) medium containing 2, 3, 4 and 5 μg/ml of azithromycin, respectively. The cell growth in the media was measured by optical absorbance measurements (turbidity) at 660 nm in intervals of 2 h.

Another series has as its system 3-oxo-C12-HSL. Kind of series: Production of 3-oxo-C12-HSL autoinducer, specific bioassay of ethyl acetate extracts of supernatants. It is filed as cell-based, P. aeruginosa. To be noted: 2 μg/ml, LB medium, 12 hours, strain PAO1. Here is the method:
(§1) P. aeruginosa strain PAO1 was grown in LB medium for 12 hours either in the absence or presence of 2 μg/ml of azithromycin. The formed 3-oxo-C12—HSL and C4—HSL autoinducers were extracted from the supernatants of both cultures with ethyl acetate and their respective concentrations were measured using specific bioassays (Pearson, J. P., Pesci, E. C., Iglewski, B. H., J. Bacteriol. 1997, 179, 3127-3132; Seed, P. C, Passador, L., Iglewski, B. H., J. Bacteriol. 1995, 177, 654-659). The results are plotted in FIG. 3 a). In the presence of the macrolide the concentrations of 3-oxo-C12-HSL and C4-HSL were reduced by 94 and 72%, respectively.

Series [2] relates to P. aeruginosa strain PAO1. Kind of series: Qualitative rhamnolipid plate assay on M9-based agar with azithromycin gradient. It is filed as cell-based. To be noted: gradient from 0 μg/ml to 20 μg/ml in agar. Here is the method:
P. aeruginosa strain PAO1 was grown on M9-based agar plates (Siegmund, I., Wagner, F., Biotechnol. Tech. 1991, 5, 265-268) into which a gradient of azithromycin from 0 μg/ml to 20 μg/ml was incorporated. The qualitative Rhamnolipid® plate assay was used.

The subject of the next series is C4-HSL. As to the kind of experiment: Production of C4-HSL autoinducer, specific bioassay of ethyl acetate extracts of supernatants. Format: cell-based, P. aeruginosa. To be noted: 2 μg/ml, LB medium, 12 hours, strain PAO1. Here is the method:
as §1

A further series relates to rhlAB operon. Kind of series: rhlA'-lacZ reporter (pECP60) expression of the rhlAB operon, beta-Gal activity, with growth curves. It is filed as cell-based, P. aeruginosa. As to conditions: 2 μg/ml, LB medium, 16 hours. Here is the method:
P. aeruginosa strain PAO1, harbouring the fusion gene pECP60 of rhlA′ with the lacZ reporter (Pesci, E. C., Pearson, J. P., Seed, P. C., Iglewski, B. H., J. Bacteriol. 1997, 179, 3127-3132), was grown for 16 hours in LB medium either in the absence or presence of 2 μg/ml azithromycin and the activity of β-galactosidase (β-Gal) (Miller, J. H., “Experiments in Molecular Genetics”, p. 352-355. Cold Spring Harbor Laboratory, Cold Spring Harbor, N.Y.) was measured in both cultures in intervals of 4 hours. The results of 6 experiments (mean±SD) for each culture were plotted against sampling time (FIG. 1c).

The test system of series [3] is P. aeruginosa strain PAO1. As to the kind of experiment: Growth curves (optical density at 660 nm) in the elastase production experiment. As to conditions: 2 μg/ml, broth medium, 16 hours. It is filed as cell-based. Here is the method:
P. aeruginosa strain PAO1 was grown over a total of 16 hours in broth medium either without azithromycin or with 2 μg/ml azithromycin. Samples of the supernatants of both cultures were taken in intervals of 4 hours and the activity of elastase in the samples was determined using elastin Congo red assays (Pearson, J. P., Pesci, E. C., Iglewski, B. H., J. Bacteriol. 1997, 179, 5756-5767). The measured elastase activity was plotted against the sampling times, giving FIG. 1b).

The test system of series [4] is lasR, rhlR, lasI and rhlI genes. As to the kind of experiment: lacZ reporter fusions of lasR, rhlR, lasI, rhlI, beta-Gal activity. Format: cell-based, P. aeruginosa. To be noted: 2 μg/ml azithromycin, 10 h. As to the method: Cultures of P. aeruginosa strain PAO1, harbouring the fusion gene of lasR′ with lacZ reporter (pPCS10011; Pesci, E. C., Pearson, J. P., Seed, P. C., Iglewski, B. H., J. Bacteriol. 1997, 179, 3127-3132), or the fusion gene of rhlR′ with lacZ (pPCS1002; ibid.), or the fusion gene of lasI′ with lacZ (pPCS223; Van Delden, C., Pesci, E. C., Pearson, J. P., Iglewski, B. H., Infect. Immun. 1998, 66, 4499-4502), or the fusion gene of rhlI′ with lacZ (pLPRI; ibid.) were grown for 10 h in broth medium either in the absence or presence of 2 μg/ml azithromycin and the β-Gal activity was then determined. The results for lasR and rhlR are shown in FIG. 2a) and for lasI and rhlI in FIG. 2b) (plotted bars are the mean ±SD of 6 individual experiments each).

The conditions of series [5]: in vivo; cited from earlier work.
For another series, the system named is P. aeruginosa strains. To be noted: clinical trials; cited from earlier work.
For another series, the system named is C4-HSL autoinducer. To be noted: 50 μg of erythromycin/ml; cited from earlier work.
Where [6] appears, read: 2 μg of azithromycin/ml, LB medium, strain PAO1.

With `CC[C@H]1OC(=O)[C@H](C)[C@@H](O[C@H]2C[C@@](C)(OC)[C@@H](O)[C@H](C)O2)[C@H](C)[C@@H](O[C@@H]2O[C@H](C)C[C@H](N(C)C)[C@H]2O)[C@](C)(O)C[C@@H](C)CN(C)[C@H](C)[C@@H](O)[C@]1(C)O` [azithromycin], in [1] (setting [6]), the “effect on exponential growth” value is given as “slightly affected” and the “effect on the stationary growth phase” value was “no effect”. Further, in series [1] (in vitro concentration 2 μg/ml), the “inhibition of PAO1” value is recorded as “does not inhibit PAO1”. For the same compound, the “reduction of 3-oxo-C12-HSL concentration” value in the series with 3-oxo-C12-HSL came out at 94%. In addition, in series [2], the “growth on rhamnolipid plates” value is recorded as “without a parallel drop in growth” and the production of rhamnolipids entry is given as “progressively decreased”. Moreover, the “reduction of C4-HSL concentration” value in the series with C4-HSL is listed as 72%. In addition, the “influence on the growth (optical density at 660 nm)” value in the series with rhlAB operon is “no significant influence”. Moreover, the “influence on the growth (optical density at 660 nm)” value in [3] is “no significant influence”. In addition, the “restoration of lasI expression by co-addition of exogenous autoinducers” value in series [4] (10 μM exogenous autoinducers) was “could not restore”. Besides, in series [4] (autoinducers 10 μM each), the “effect on lasR and rhlR expression on co-adding exogenous 3-oxo-C12-HSL and C4-HSL” value is recorded as “almost completely compensated”. In addition, the “distribution between body tissues and serum/plasma” value in series [5] was “tends to accumulate in body tissues”.
For the compound `CC[C@H]1OC(=O)[C@H](C)[C@@H](O[C@H]2C[C@@](C)(OC)[C@@H](O)[C@H](C)O2)[C@H](C)[C@@H](O[C@@H]2O[C@H](C)C[C@H](N(C)C)[C@H]2O)[C@](C)(OC)C[C@@H](C)C(=O)[C@H](C)[C@@H](O)[C@]1(C)O` [clarithromycin], the “effect on the viability of the microorganism” value in the series with P. aeruginosa strains was “no effect”.
On to `CC[C@H]1OC(=O)[C@H](C)[C@@H](O[C@H]2C[C@@](C)(OC)[C@@H](O)[C@H](C)O2)[C@H](C)[C@@H](O[C@@H]2O[C@H](C)C[C@H](N(C)C)[C@H]2O)[C@](C)(O)C[C@@H](C)C(=O)[C@H](C)[C@@H](O)[C@]1(C)O` [erythromycin], for which the autoinducer production entry in the series on C4-HSL autoinducer is “reduction”.
